The test concerns the target Chymotrypsinogen A (Bos taurus) (UniProt P00766). Kind of test: Compound was evaluated for its inhibitory activity against bovine pancreatic alpha-chymotrypsin.

pIC50: −log10 of the molar value.

In the case of `Cc1ccc(N2C(=O)N(c3ccc(C)cc3)C2=O)cc1` [1,3-Di-p-tolyl-[1,3]diazetidine-2,4-dione], the pIC50 (in general, −log10 of the IC50, conventionally taken in molar units) was 8.62.

The values above are taken from BindingDB's records for doi:10.1016/s0960-894x(01)00264-5 (Shionogi, 2001).
